Usually inhibition stands for the percentage by which the read-out fell short of the control.

Like-named read-outs stand apart in the source and are kept apart here.

This assay concerns the target T1, human μ-opiate receptor (Homo sapiens, UniProt P35372).
T1 construct: purchased PerkinElmer Life Sciences, Zaventem, Belgium RB-HOM; host or cells: CHO-K1 cells (recombinant expression; membrane preparation)
Put plainly: Affinity for the human μ-opiate receptor ([3H]-naloxone displacement, SPA). Conditions: test substance 1 μmole/l, inhibition of specific [3H]-naloxone binding, CHO-K1 membranes, read-out: μ-Opioid receptor, % inhibition [1 μM]. In short, it runs like this: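 CHO-K1 membranes expressing the receptor, incubated 90 min at room temperature with 1 nmol/l [3H]-naloxone and WGA-SPA beads in 50 mmol/l Tris-HCl with 0.06% BSA. Non-specific binding defined with 100 μmol/l naloxone. Value is % inhibition of specific binding at 1 μmol/l test substance.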

T1 sequence (P35372 whole entry): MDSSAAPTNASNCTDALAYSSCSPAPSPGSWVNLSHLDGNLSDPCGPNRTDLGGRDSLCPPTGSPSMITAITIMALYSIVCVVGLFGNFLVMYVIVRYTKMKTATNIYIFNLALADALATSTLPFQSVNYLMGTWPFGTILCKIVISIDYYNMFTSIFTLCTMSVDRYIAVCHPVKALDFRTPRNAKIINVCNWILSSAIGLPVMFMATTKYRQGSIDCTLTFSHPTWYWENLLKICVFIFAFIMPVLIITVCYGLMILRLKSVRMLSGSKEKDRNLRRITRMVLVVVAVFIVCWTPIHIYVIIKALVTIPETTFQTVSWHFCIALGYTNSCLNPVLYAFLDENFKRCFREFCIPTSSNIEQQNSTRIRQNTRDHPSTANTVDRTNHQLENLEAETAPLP

Consider `COC(=O)C1(CC(C)C)N=CN(CCc2ccccc2)C1CC1CCC(C(c2ccc(Cl)cc2)N(C)C)CC1` (centres unmarked) [Example 43, 5-{4-[(4-chlorophenyl)-dimethylaminomethyl]-cyclohexylmethy}-4-isobutyl-1-phenethyl-4,5-dihydro-1H-imidazole-4-carboxylic acid methyl ester], for which the inhibition at 1 µM (Table 2, Examples 11-161) stood at 97%.
On to `CCCCN1C=NC(C(=O)OC)(C(C)CC)C1CC1CCC(C(c2ccc(Cl)cc2)N(C)C)CC1` (centres unmarked) [Example 88, 1-butyl-4-sec-butyl-5-{4-[(4-chlorophenyl)-dimethylaminomethyl]-cyclohexylmethyl}-4,5-dihydro-1H-imidazole-4-carboxylic acid methyl ester], for which the inhibition at 1 µM (Table 2, Examples 11-161) came to 98%.
Same read-out and setting: under `COC(=O)C1(Cc2ccc(Cl)cc2)N=CN(CCc2ccccc2)C1CC1CCC(C(c2ccc(Cl)cc2)N(C)C)CC1` (centres unmarked) [Example 44, 4-(4-chlorobenzyl)-5-{4-[(4-chlorophenyl)-dimethylaminomethyl]-cyclohexylmethyl}-1-phenethyl-4,5-dihydro-1H-imidazole-4-carboxylic acid methyl ester] stands 91%.
Turning to `CN(C)C(c1cccs1)C1CCC(CC=O)CC1` (centres unmarked) [Example 10d, {4-[dimethylamino-thiophen-2-yl-methyl]-cyclohexyl}-acetaldehyde], the inhibition at 1 µM (Table 1, aldehydes) turned out to be 79%.
Turning to `COC(=O)C1(CCSC)N=CN(Cc2ccccc2)C1CC1CCC(C(c2cccc(F)c2)N(C)C)CC1` (centres unmarked) [Example 139, 1-benzyl-5-{4-[dimethylamino-(3-fluorophenyl)-methyl]-cyclohexylmethyl}-4-(2-methylsulfanyl-ethyl)-4,5-dihydro-1H-imidazole-4-carboxylic acid methyl ester], the inhibition at 1 µM (Table 2, Examples 11-161) was found to be 100%.
Take `CN(C)C(c1cccc(F)c1)C1CCC(CC=O)CC1` (centres unmarked) [Example 10b, {4-[dimethylamino-(3-fluorophenyl)-methyl]-cyclohexyl}-acetaldehyde]: the inhibition at 1 µM (Table 1, aldehydes) worked out at 67%.
With `CCCCN1C=NC(CSCc2ccccc2)(C(=O)OC)C1CC1CCC(C(c2cccc(F)c2)N(C)C)CC1` (centres unmarked) [Example 75, 4-benzylsulfanylmethyl-1-butyl-5-{4-[dimethylamino-(3-fluorophenyl)-methyl]-cyclohexylmethyl}-4,5-dihydro-1H-imidazole-4-carboxylic acid methyl ester], where the note is “Table 2, Examples 11-161”, the inhibition at 1 µM turned out to be 98%.
As to `COC(=O)CCC1(C(=O)OC)N=CN(C2CCCCC2)C1CC1CCC(C(CCc2ccccc2)N(C)C)CC1` (centres unmarked) [Example 154, 1-cyclohexyl-5-[4-(1-dimethylamino-3-phenylpropyl)-cyclohexylmethyl]-4-(2-methoxycarbonylethyl)-4,5-dihydro-1H-imidazole-4-carboxylic acid methyl ester], the inhibition at 1 µM (Table 2, Examples 11-161) is 82%.
The same measure, in the same setting: under `CCCN1C=NC(CSC)(C(=O)OC)C1C1CCC(C(c2cccc(F)c2)N(C)C)CC1` (centres unmarked) [Example 57, 5-{4-[dimethylamino-(3-fluorophenyl)-methyl]-cyclohexyl}-4-methylsulfanylmethyl-1-propyl-4,5-dihydro-1H-imidazole-4-carboxylic acid methyl ester] stands 86%.
Still for that read-out and setting: under `CCCN1C=NC(CCC(=O)OC)(C(=O)OC)C1CC1CCC(C(c2ccc(F)cc2)N(C)C)CC1` (centres unmarked) [Example 159, 5-{4-[dimethylamino-(4-fluorophenyl)-methyl]-cyclohexylmethyl}-4-(2-methoxycarbonylethyl)-1-propyl-4,5-dihydro-1H-imidazole-4-carboxylic acid methyl ester] stands 79%; under `CCCCN1C=NC(CCC)(C(=O)OC)C1CC1CCC(C(CCc2ccccc2)N(C)C)CC1` (centres unmarked) [Example 127, 1-butyl-5-[4-(1-dimethylamino-3-phenylpropyl)-cyclohexylmethyl]-4-propyl-4,5-dihydro-1H-imidazole-4-carboxylic acid methyl ester], 74%.
On the same count and under the same terms, under `COC(=O)C1(CSCc2ccccc2)N=CN(C2CCCCC2)C1CC1CCC(C(CCc2ccccc2)N(C)C)CC1` (centres unmarked) [Example 156, 4-benzylsulfanylmethyl-1-cyclohexyl-5-[4-(1-dimethylamino-3-phenylpropyl)-cyclohexylmethyl]-4,5-dihydro-1H-imidazole-4-carboxylic acid methyl ester] stands 92%; under `COC(=O)C1(CSC)N=CN(Cc2ccccc2)C1CC1CCC(C(c2ccc(Cl)cc2)N(C)C)CC1` (centres unmarked) [Example 100, 1-benzyl-5-{4-[(4-chlorophenyl)-dimethylaminomethyl]-cyclohexylmethyl}-4-methylsulfanylmethyl-4,5-dihydro-1H-imidazole-4-carboxylic acid methyl ester], 97%.
For `CCCCN1C=NC(CSC)(C(=O)OC)C1CC1CCC(C(c2ccc(Cl)cc2)N(C)C)CC1` (centres unmarked) [Example 89, 1-butyl-5-{4-[(4-chlorophenyl)-dimethylaminomethyl]-cyclohexylmethyl}-4-methylsulfanylmethyl-4,5-dihydro-1H-imidazole-4-carboxylic acid methyl ester], the inhibition at 1 µM (Table 2, Examples 11-161) was 96%.
For `COC(=O)C1(Cc2ccc(Cl)cc2)N=CN(C2CCCCC2)C1C1CCC(C(c2cccc(F)c2)N(C)C)CC1` (centres unmarked) [Example 12, 4-(4-chlorobenzyl)-1-cyclohexyl-5-{4-[dimethylamino-(3-fluorophenyl)-methyl]-cyclohexyl}-4,5-dihydro-1H-imidazole-4-carboxylic acid methyl ester], the inhibition at 1 µM (Table 2, Examples 11-161) stood at 73%.
Turning to `CCCCC1(C(=O)OC)N=CN(CCC)C1C1CCC(C(c2cccc(F)c2)N(C)C)CC1` (centres unmarked) [Example 23, 4-butyl-5-{4-[dimethylamino-(3-fluorophenyl)-methyl]-cyclohexyl}-1-propyl-4,5-dihydro-1H-imidazole-4-carboxylic acid methyl ester], the inhibition at 1 µM (Table 2, Examples 11-161) came to 76%.
Consider `CN(C)C(c1cccs1)C1CCC(C=O)CC1` (centres unmarked) [Example 9d, 4-(dimethylaminothiophen-2-yl-methyl)-cyclohexane carbaldehyde], for which the inhibition at 1 µM (Table 1, aldehydes) amounted to 69%.
Regarding `COC(=O)C1(CSC)N=CN(C2CCCCC2)C1CC1CCC(C(c2ccc(Cl)cc2)N(C)C)CC1` (centres unmarked) [Example 55, 5-{4-[(4-chlorophenyl)-dimethylaminomethyl]-cyclohexylmethyl}-1-cyclohexyl-4-methylsulfanylmethyl-4,5-dihydro-1H-imidazole-4-carboxylic acid methyl ester], the inhibition at 1 µM (Table 2, Examples 11-161) was 91%.
In the case of `COC(=O)CCC1(C(=O)OC)N=CN(Cc2ccccc2)C1CC1CCC(C(c2ccc(Cl)cc2)N(C)C)CC1` (centres unmarked) [Example 99, 1-benzyl-5-{4-[(4-chlorophenyl)-dimethylaminomethyl]-cyclohexylmethyl}-4-(2-methoxycarbonylethyl)-4,5-dihydro-1H-imidazole-4-carboxylic acid methyl ester], the inhibition at 1 µM (Table 2, Examples 11-161) is 100%.
On the same count and under the same terms, under `COC(=O)CCC1(C(=O)OC)N=CN(C2CCCCC2)C1CC1CCC(C(c2ccc(F)cc2)N(C)C)CC1` (centres unmarked) [Example 151, 1-cyclohexyl-5-{4-[dimethylamino-(4-fluorophenyl)-methyl]-cyclohexylmethyl}-4-(2-methoxycarbonylethyl)-4,5-dihydro-1H-imidazole-4-carboxylic acid methyl ester] stands 95%.

The record behind these values is US7728028B2, “Substituted imidazoline compounds” (Gruenenthal GmbH, priority 2005, dated 2010).
